Assay [1] concerns the target T1, SARS-CoV-2 PL^pro (PL^pro; PL^pro-His) (Severe acute respiratory syndrome coronavirus 2, UniProt P0DTD1).
T1 construct: gene rep
Put plainly: FRET peptide cleavage assay. It is filed as biochemical. The note with it: Dabcyl-FTLRGG/APTKV-Edans substrate, 200 nM PLpro.

Assay [2] addresses T2, SARS-CoV-2 M^pro (Severe acute respiratory syndrome coronavirus 2, UniProt P0DTD1).
T2 construct: gene rep
Description: Mpro FRET peptide assay. The conditions noted are these: pH 6.5; Dabcyl-KTSAVLQ/SGFRKME(Edans) substrate. It is filed as biochemical.

Assay [3] addresses T3, SARS-CoV-2 PL^pro (pcDNA3.1 SARS2 PL^pro, FlipGFP assay) (Severe acute respiratory syndrome coronavirus 2, UniProt P0DTD1).
T3 construct: gene rep
Put plainly: FlipGFP-PLpro reporter assay. The conditions noted are these: GFP/mCherry ratio, 48 h. It is filed as cell-based.

Where only a bound is given, the exact number is not on record here.

As a reminder, the IC50 is the concentration that inhibits the measured activity by half. The low end stands for higher potency, the high end for lower potency. Regarding `C[C@H](c1ccc(Cl)cc1)N(C)Cc1cc(O)ccc1Cl` [Jun9-13-4], the IC50 in assay [1] was above 20000 nM. Regarding `CC(c1ccccc1Cl)N(C)Cc1cc(O)ccc1Cl` (centres unmarked) [Jun9-13-7], the IC50 in assay [1] came out at 7290 ± 1030 nM. For the same molecule, the “inhibition at up to 200 μM” value in assay [2] is above 200 µM. With `CC(c1cc(F)ccc1F)N(C)Cc1cc(O)ccc1Cl` (centres unmarked) [Jun9-29-5], the IC50 in assay [1] was above 20000 nM. The same measure, in the same setting: as for `Cc1ccc(N)cc1CN(C)[C@H](C)c1cccc2ccccc12` [Jun9-53-2], the figure is 890 nM; as for `C[C@H](c1cccc2ccccc12)N(C)Cc1cccc2[nH]ccc12` [Jun9-75-4], 620 nM.

As a reminder, the EC50 is the concentration giving half of the maximal effect. Jun9-75-5: the EC50 in assay [3] was above 60000 nM. Moreover, half-maximal inhibition in assay [1] (IC50) required 560 nM.

The record behind these values is paper doi:10.1101/2021.03.15.435551, “Discovery of SARS-CoV-2 papain-like protease inhibitors through a combination of high-throughput screening and FlipGFP-based reporter assay” (bioRxiv, 2021).
